Experiments:
morningglory [1] = experiment: Test A postemergence; format: in vivo, Ipomoea spp.
Summary of the method: (§1)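 Pre- and postemergence greenhouse screen. Soil: loam + sand. Spray carrier: solvent mixture, non-phytotoxic, with surfactant. Post timing at 1–2 leaves, height 2–10 cm. Readout: visual injury on a 0–100 scale roughly 10 days after application, untreated plants as reference.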

Heteranthera limosa = experiment: Test B flooded paddy test; format: in vivo; settings: Flood, 250 g ai/ha, 0 to 100 scale where 0 is no effect and 100 is complete control
Summary of the method: (§2)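 Visual ratings on a 0 to 100 scale, where 100 means complete control, compared treated plants with controls after 13 to 15 days in a greenhouse. Treatment went into paddy water 3 cm deep over the soil, applied to plants at the 2-leaf stage.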

giant foxtail [2] = experiment: Test A postemergence; format: in vivo, Setaria faberii
Summary of the method: as §1

yellow nutsedge = experiment: Test C preemergence; format: in vivo, Cyperus esculentus; settings: for Nutsedge, Yellow plant response rating: preemergence, scale 0 (no effect) to 100 (complete control)
Summary of the method: (§3)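 Greenhouse herbicide screen. Pre: seeded loam/sand, sprayed at planting. Post: 1–4 leaf plants (2–18 cm) in peat-based mix. Formulation: solvent mixture + surfactant, non-phytotoxic. Readout: visual % control vs untreated, 13–15 d; dash = not tested.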

large (Lg) crabgrass = experiment: Test A postemergence; format: in vivo, Digitaria sanguinalis
Summary of the method: as §1

barnyardgrass [3] = experiment: Test B flooded paddy test; format: in vivo, Echinochloa crus-galli; settings: Flood, 250 g ai/ha, 0 to 100 scale where 0 is no effect and 100 is complete control
Summary of the method: as §2

velvetleaf [4] = experiment: Test A postemergence; format: in vivo, Abutilon theophrasti
Summary of the method: as §1

pigweed = experiment: Test C preemergence; format: in vivo, Amaranthus retroflexus; settings: for Pigweed plant response rating: preemergence, scale 0 (no effect) to 100 (complete control)
Summary of the method: as §3

morningglory [5] = experiment: Test C postemergence; format: in vivo, Ipomoea coccinea
Summary of the method: as §3

barnyardgrass [6] = experiment: Test A postemergence; format: in vivo, Echinochloa crus-galli
Summary of the method: as §1

wheat, winter = experiment: Test C preemergence; format: in vivo, Triticum aestivum; settings: for Wheat plant response rating: preemergence, scale 0 (no effect) to 100 (complete control)
Summary of the method: as §3

chickweed = experiment: Test C postemergence; format: in vivo, Stellaria media
Summary of the method: as §3

velvetleaf [7] = experiment: Test C preemergence; format: in vivo, Abutilon theophrasti; settings: for Velvetleaf plant response rating: preemergence, scale 0 (no effect) to 100 (complete control)
Summary of the method: as §3

corn = experiment: Test A postemergence; format: in vivo, Zea mays
Summary of the method: as §1

giant foxtail [8] = experiment: Test C preemergence; format: in vivo, Setaria faberii; settings: for Foxtail, Giant plant response rating: preemergence, scale 0 (no effect) to 100 (complete control)
Summary of the method: as §3

galium = experiment: Test C postemergence; format: in vivo, Galium aparine
Summary of the method: as §3

[9] = 125 g ai/ha, 0 to 100 scale where 0 is no effect and 100 is complete control
[10] = 500 g ai/ha, 0 to 100 scale, 0 no effect, 100 complete control
[11] = Preemergence, 31 g ai/ha, scale 0 to 100, 0 no effect, 100 complete control
[12] = Postemergence, 31 g ai/ha, scale 0 to 100 (0 no effect, 100 complete control), 13 to 15 days
[13] = Postemergence, 62 g ai/ha, scale 0 to 100 (0 no effect, 100 complete control)
[14] = 1000 g ai/ha, 0 to 100 scale, 0 no effect, 100 complete control
[15] = 8 g ai/ha, postemergence, 0 is no effect, 100 is complete control
[16] = 16 g ai/ha, postemergence, 0 is no effect, 100 is complete control

FC(F)(F)c1cnn(-c2ccccc2Oc2ncc(Cl)cn2)c1 [Compound 16]
Plant response rating, Morningglory (morningglory [1]; [9]): 90
Plant response rating, Morningglory (morningglory [1]; [10]): 100
Plant response rating, Ducksalad (Heteranthera limosa): 90
Plant response rating, Foxtail, Giant (giant foxtail [2]; [9]): 100
Plant response rating, Foxtail, Giant (giant foxtail [2]; [10]): 100
Nutsedge, Yellow plant response rating (yellow nutsedge; 62 g ai/ha): 25
Nutsedge, Yellow plant response rating (yellow nutsedge; 125 g ai/ha): 65
Nutsedge, Yellow plant response rating (yellow nutsedge; 250 g ai/ha): 65
Plant response rating, Nutsedge, Yellow (yellow nutsedge; [11]): 15
Plant response rating, Crabgrass, Large (large (Lg) crabgrass; [9]): 80
Plant response rating, Crabgrass, Large (large (Lg) crabgrass; [10]): 100
Plant response rating, Barnyardgrass (barnyardgrass [3]): 40
Plant response rating, Velvetleaf (velvetleaf [4]; [9]): 100
Plant response rating, Velvetleaf (velvetleaf [4]; [10]): 100
Pigweed plant response rating (pigweed; 62 g ai/ha): 100
Pigweed plant response rating (pigweed; 125 g ai/ha): 100
Pigweed plant response rating (pigweed; 250 g ai/ha): 100
Plant response rating, Pigweed (pigweed; [11]): 100
Plant response rating (0 to 100), Morningglory (morningglory [5]; 125 g ai/ha, postemergence): 80
Plant response rating (0 to 100), Morningglory (morningglory [5]; 250 g ai/ha, postemergence): 85
Plant response rating, Morningglory (morningglory [5]; [12]): 65
Plant response rating, Morningglory (morningglory [5]; [13]): 80
Plant response rating, Barnyardgrass (barnyardgrass [6]; [9]): 60
Plant response rating, Barnyardgrass (barnyardgrass [6]; [10]): 100
Wheat plant response rating (wheat, winter; 62 g ai/ha): 0
Wheat plant response rating (wheat, winter; 125 g ai/ha): 35
Wheat plant response rating (wheat, winter; 250 g ai/ha): 60
Plant response rating, Wheat (wheat, winter; [11]): 0
Plant response rating (0 to 100), Chickweed (chickweed; 125 g ai/ha, postemergence): 75
Plant response rating (0 to 100), Chickweed (chickweed; 250 g ai/ha, postemergence): 90
Plant response rating, Chickweed (chickweed; [12]): 40
Plant response rating, Chickweed (chickweed; [13]): 65
Velvetleaf plant response rating (velvetleaf [7]; 62 g ai/ha): 100
Velvetleaf plant response rating (velvetleaf [7]; 125 g ai/ha): 100
Velvetleaf plant response rating (velvetleaf [7]; 250 g ai/ha): 100
Plant response rating, Velvetleaf (velvetleaf [7]; [11]): 98
Plant response rating, Corn (corn; [9]): 70
Plant response rating, Corn (corn; [10]): 80
Foxtail, Giant plant response rating (giant foxtail [8]; 62 g ai/ha): 98
Foxtail, Giant plant response rating (giant foxtail [8]; 125 g ai/ha): 100
Foxtail, Giant plant response rating (giant foxtail [8]; 250 g ai/ha): 100
Plant response rating, Foxtail, Giant (giant foxtail [8]; [11]): 95

CC(=NO)c1cn(-c2c(Br)cccc2Oc2ncc(Cl)cn2)nn1 [Compound 115]
Plant response rating, Morningglory (morningglory [1]; [14]): 100
Plant response rating, Ducksalad (Heteranthera limosa): 70
Plant response rating, Foxtail, Giant (giant foxtail [2]; [14]): 90
Plant response rating, Crabgrass, Large (large (Lg) crabgrass; [14]): 90
Plant response rating, Barnyardgrass (barnyardgrass [3]): 0
Plant response rating (0 to 100), Galium (galium; [15]): 5
Plant response rating (0 to 100), Galium (galium; [16]): 40
Plant response rating, Velvetleaf (velvetleaf [4]; [14]): 100
Plant response rating (0 to 100), Morningglory (morningglory [5]; [15]): 0
Plant response rating (0 to 100), Morningglory (morningglory [5]; [16]): 40
Plant response rating, Barnyardgrass (barnyardgrass [6]; [14]): 90
Plant response rating (0 to 100), Chickweed (chickweed; 4 g ai/ha, postemergence, 0 is no effect, 100 is complete control): 0
Plant response rating (0 to 100), Chickweed (chickweed; [15]): 5
Plant response rating (0 to 100), Chickweed (chickweed; [16]): 5
Plant response rating, Corn (corn; [14]): 90

Fc1cccc(Oc2ncc(Cl)cn2)c1-n1cc(Br)cn1 [Compound 178, 2-[2-(4-bromo-1H-pyrazol-1-yl)-3-fluorophenoxy]-5-chloropyrimidine]
Morningglory plant response rating (morningglory [1]; [9]): 70
pest or weed control at 500 g/ha (morningglory [1]; Ipomoea, post-emergence, 240 h, 500 g ai/ha, 0 to 100 scale where 0 is no effect and 100 is complete control, read-out: Plant response rating, Morningglory): 100%
pest or weed control at 250 g/ha (Heteranthera limosa; Heteranthera limosa, read-out: Plant response rating, Ducksalad): 0%
pest or weed control at 125 g/ha (giant foxtail [2]; Setaria faberi, post-emergence, 240 h, 125 g ai/ha, 0 to 100 scale where 0 is no effect and 100 is complete control, read-out: Foxtail, Giant plant response rating): 90%
pest or weed control at 500 g/ha (giant foxtail [2]; Setaria faberi, post-emergence, 240 h, 500 g ai/ha, 0 to 100 scale where 0 is no effect and 100 is complete control, read-out: Plant response rating, Foxtail, Giant): 100%
Crabgrass, Large plant response rating (large (Lg) crabgrass; [9]): 90
pest or weed control at 500 g/ha (large (Lg) crabgrass; Digitaria sanguinalis, post-emergence, 240 h, 500 g ai/ha, 0 to 100 scale where 0 is no effect and 100 is complete control, read-out: Plant response rating, Crabgrass, Large): 100%
pest or weed control at 250 g/ha (barnyardgrass [3]; Echinochloa crus-galli, read-out: Plant response rating, Barnyardgrass): 0%
pest or weed control at 16 g/ha (galium; Galium, post-emergence, 16 g ai/ha, postemergence, 0 is no effect, 100 is complete control, read-out: Plant response rating (0 to 100), Galium): 80%
pest or weed control at 31 g/ha (galium; Galium, post-emergence, 31 g ai/ha, postemergence, visual rating, scale 0 to 100 (0 no effect, 100 complete control), 13 to 15 days, read-out: Galium plant response rating): 75%
pest or weed control at 125 g/ha (galium; Galium, post-emergence, 125 g ai/ha, postemergence, visual rating, scale 0 to 100 (0 no effect, 100 complete control), read-out: Plant response rating, Galium): 98%
pest or weed control at 62 g/ha (galium; Galium, post-emergence, Postemergence, 62 g ai/ha, scale 0 to 100 (0 no effect, 100 complete control), read-out: Plant response rating, Galium): 85%
Velvetleaf plant response rating (velvetleaf [4]; [9]): 100
pest or weed control at 500 g/ha (velvetleaf [4]; Abutilon theophrasti, post-emergence, 240 h, 500 g ai/ha, 0 to 100 scale where 0 is no effect and 100 is complete control, read-out: Plant response rating, Velvetleaf): 100%
Morningglory plant response rating (morningglory [5]; 31 g ai/ha, postemergence, visual rating, scale 0 to 100 (0 no effect, 100 complete control), 13 to 15 days): 70
pest or weed control at 16 g/ha (morningglory [5]; Ipomoea, post-emergence, 16 g ai/ha, postemergence, 0 is no effect, 100 is complete control, read-out: Plant response rating (0 to 100), Morningglory): 10%
pest or weed control at 125 g/ha (morningglory [5]; Ipomoea, post-emergence, 125 g ai/ha, postemergence, visual rating, scale 0 to 100 (0 no effect, 100 complete control), read-out: Plant response rating, Morningglory): 65%
pest or weed control at 62 g/ha (morningglory [5]; Ipomoea, post-emergence, Postemergence, 62 g ai/ha, scale 0 to 100 (0 no effect, 100 complete control), read-out: Plant response rating, Morningglory): 85%
pest or weed control at 125 g/ha (barnyardgrass [6]; Echinochloa crus-galli, post-emergence, 240 h, 125 g ai/ha, 0 to 100 scale where 0 is no effect and 100 is complete control, read-out: Barnyardgrass plant response rating): 70%
pest or weed control at 500 g/ha (barnyardgrass [6]; Echinochloa crus-galli, post-emergence, 240 h, 500 g ai/ha, 0 to 100 scale where 0 is no effect and 100 is complete control, read-out: Plant response rating, Barnyardgrass): 100%
pest or weed control at 16 g/ha (chickweed; Stellaria media, post-emergence, 16 g ai/ha, postemergence, 0 is no effect, 100 is complete control, read-out: Plant response rating (0 to 100), Chickweed): 40%
pest or weed control at 31 g/ha (chickweed; Stellaria media, post-emergence, 31 g ai/ha, postemergence, visual rating, scale 0 to 100 (0 no effect, 100 complete control), 13 to 15 days, read-out: Chickweed plant response rating): 50%
pest or weed control at 125 g/ha (chickweed; Stellaria media, post-emergence, 125 g ai/ha, postemergence, visual rating, scale 0 to 100 (0 no effect, 100 complete control), read-out: Plant response rating, Chickweed): 80%
pest or weed control at 62 g/ha (chickweed; Stellaria media, post-emergence, Postemergence, 62 g ai/ha, scale 0 to 100 (0 no effect, 100 complete control), read-out: Plant response rating, Chickweed): 65%
plant injury at 125 g/ha (corn; Zea mays, post-emergence, 240 h, 125 g ai/ha, 0 to 100 scale where 0 is no effect and 100 is complete control, read-out: Corn plant response rating): 30%
Corn plant response rating (crop injury, 0 = no effect, 100 = complete kill) at 500 g/ha (corn; Zea mays, post-emergence, 240 h, 500 g ai/ha, 0 to 100 scale where 0 is no effect and 100 is complete control): 70%

From US9695155B2, “Herbicidal substituted pyrimidinyloxy benzene compounds” (E. I. DU PONT DE NEMOURS AND COMPANY, priority 2013, dated 2017)
